The values that follow come from patent US9244057B2, “Multiphase microarrays and uses thereof” (THE REGENTS OF THE UNIVERSITY OF MICHIGAN, priority 2010, dated 2016).

This assay has as its system MDA-MB-231 breast cancer cells. In words: cell-exclusion migration assay (aqueous two-phase system patterning, 96-well plate). Type of assay: cell-based, human. As to conditions: MDA-MB-231 cells; for effect on motility/migration of cells (in words): blebbistatin 5-200 μM for 18 hrs, then another 12 hrs in culture medium before imaging. How it is done: 6.4% (w/w) solution of the DEX 500K phase was prepared in culture media and kept at 4° C. until use. The tip magazine of an automated liquid handler (CyBi-Well, CyBio) was loaded with 96 sterile 25 μl pipette tips (CyBio). 75 μl of the DEX solution was pipetted into each well of a 96-well microplate (Corning), which was then placed on the stage of the liquid handler. To load pipette tips with the DEX solution, the stage was slowly raised until the pipette tips were slightly inside the DEX solution. 10 μl of the DEX solution was aspirated into the tips at a rate of 5 μl/s. The loaded tips were brought within 200 μm of the bottom of the wells of an empty microplate and 0.8 μl of the DEX solution was dispensed onto the surface at a rate of 0.5 μl/s to form circular droplets. The microplate was kept in a culture hood for at least 24 hrs to allow the droplets to dry. Images of the dried droplets were captured using a bright-field microscope (Nikon, TS-200). The Feret diameters of the droplets were determined using the “Analyze Particles” function of ImageJ (NIH). Droplets whose Feret diameters were not within ˜1% of the desired mean diameter were excluded from use in the assay. The entire printing and drying process was performed in a sterile culture hood.
Three different human cancer cell lines were used: MDA-MB-231 breast cancer cells (ATCC) were cultured in DMEM medium supplemented with 10% heat-inactivated fetal bovine serum (HI-FBS, Invitrogen), 1% glutamine (Invitrogen), and 1% antibiotic. A549 lung cancer cells (ATCC) were cultured using F-12K medium (ATCC) supplemented with 10% HI-FBS and 1% antibiotic. PC-3 prostate cancer cells were maintained in DMEM supplemented with 10% HI-FBS and 1% antibiotic. Cells were maintained in a cell culture incubator at 37° C. with 5% CO2 and 95% humidity. When at desired confluence, cells were washed with PBS and Hank's-based enzyme-free cell dissociation buffer was added to the flask. Cells were incubated for 30 min and then collected and suspended in complete growth medium. After centrifuging down for 5 min at 4° C. and 1000 rpm, cells were resuspended in appropriate volume of the culture medium to give a density of 2×10^6 cells/ml.
5.0% (w/w) solution of the PEG 35K phase was prepared in culture media and kept at 4° C. until use. This solution was added to the cell suspension at a 1:1 (v/v) ratio to give a final PEG phase concentration of 2.5%. Prior to this step, cell suspension density was adjusted by addition of culture media to result in a final density of 4.5×10^4 MDA-MB-231 cells, 4.0×10^4 A549 cells, and 4.5×10^4 PC-3 cells after addition of the PEG-containing media. These cell densities were selected from preliminary experiments that evaluated the number of cells required to form a confluent monolayer per unit surface area. 80 μl of the resulting solution was added to each well of a 96-well plate, which was incubated at 37° C. with 5% CO2 and 95% humidity overnight (12 hrs). Then, the two-phase media was washed out and replaced with regular culture media. This was set as the time zero of the migration experiment.
After allowing MDA-MB-231 cells to spread and form a confluent monolayer around the cell excluded gaps, they were treated with (±)-blebbistatin at different concentrations in the range 5-200 μM or anti-cancer drugs paclitaxel, colchicine, and nocodazole in the concentration range of 1-1000 nM. Cells were incubated for 18 hrs in the presence of blebbistatin, washed with PBS once, and regular culture medium was added. Incubation continued for another 12 hrs before imaging. To study the effect of anti-cancer drugs, cells were incubated with each drug for 2 hrs, washed with PBS, and then supplied with culture medium. Imaging was performed after 30 hrs of incubation. Experiments were set in 30 replicates. All reagents were purchased from Sigma.
After migration experiments were complete, cells were stained with a 5 μM Calcein AM and the plates were incubated at 37° C. for 30 min. […]

Setting [1] is: 2 hr treatment, tested 1-1000 nM, imaging after 30 hrs.

Regarding `CC(=O)O[C@H]1C(=O)[C@@]2(C)[C@H]([C@H](OC(=O)c3ccccc3)[C@]3(O)C[C@H](OC(=O)[C@H](O)[C@@H](NC(=O)c4ccccc4)c4ccccc4)C(C)=C1C3(C)C)[C@]1(OC(C)=O)CO[C@@H]1C[C@@H]2O` [Paclitaxel, paclitaxel], the “concentration range showing potency for inhibiting cell motility” value under setting [1] was in the range of 0.01 to 0.1 µM.
Take `Cc1ccc2c(c1)C(=O)C1(O)CCN(c3ccccc3)C1=N2` (racemic) [blebbistatin, (±)-blebbistatin]: the “effect on motility/migration of cells (in words)” value is reported as “dose-dependent response”. Also, the “effect on motility/migration of cells (in words)” value (listed as Blebbistatin) is given as “dose-dependent inhibition”. For the same molecule, the IC50 (six concentrations 5-200 μM for 18 hrs, BioDataFit software, read-out: IC50 for inhibition of cell migration) stood at 31.8 µM.
As to `COc1cc2c(c(OC)c1OC)-c1ccc(OC)c(=O)cc1[C@@H](NC(C)=O)CC2` [colchicine], under “2 hr treatment, tested 1-1000 nM, imaging after 30 hrs, especially above 100 nM”, the “effect on cell motility (in words)” value is “reduced cell motility in a dose-dependent manner”.
With `COC(=O)Nc1nc2ccc(C(=O)c3cccs3)cc2[nH]1` [Nocodazole, nocodazole], the reduction of migration result under setting [1] is listed as “less than 20%”.
